Molecules are shown by their SMILES.

T1 sequence (Q96P20 whole entry): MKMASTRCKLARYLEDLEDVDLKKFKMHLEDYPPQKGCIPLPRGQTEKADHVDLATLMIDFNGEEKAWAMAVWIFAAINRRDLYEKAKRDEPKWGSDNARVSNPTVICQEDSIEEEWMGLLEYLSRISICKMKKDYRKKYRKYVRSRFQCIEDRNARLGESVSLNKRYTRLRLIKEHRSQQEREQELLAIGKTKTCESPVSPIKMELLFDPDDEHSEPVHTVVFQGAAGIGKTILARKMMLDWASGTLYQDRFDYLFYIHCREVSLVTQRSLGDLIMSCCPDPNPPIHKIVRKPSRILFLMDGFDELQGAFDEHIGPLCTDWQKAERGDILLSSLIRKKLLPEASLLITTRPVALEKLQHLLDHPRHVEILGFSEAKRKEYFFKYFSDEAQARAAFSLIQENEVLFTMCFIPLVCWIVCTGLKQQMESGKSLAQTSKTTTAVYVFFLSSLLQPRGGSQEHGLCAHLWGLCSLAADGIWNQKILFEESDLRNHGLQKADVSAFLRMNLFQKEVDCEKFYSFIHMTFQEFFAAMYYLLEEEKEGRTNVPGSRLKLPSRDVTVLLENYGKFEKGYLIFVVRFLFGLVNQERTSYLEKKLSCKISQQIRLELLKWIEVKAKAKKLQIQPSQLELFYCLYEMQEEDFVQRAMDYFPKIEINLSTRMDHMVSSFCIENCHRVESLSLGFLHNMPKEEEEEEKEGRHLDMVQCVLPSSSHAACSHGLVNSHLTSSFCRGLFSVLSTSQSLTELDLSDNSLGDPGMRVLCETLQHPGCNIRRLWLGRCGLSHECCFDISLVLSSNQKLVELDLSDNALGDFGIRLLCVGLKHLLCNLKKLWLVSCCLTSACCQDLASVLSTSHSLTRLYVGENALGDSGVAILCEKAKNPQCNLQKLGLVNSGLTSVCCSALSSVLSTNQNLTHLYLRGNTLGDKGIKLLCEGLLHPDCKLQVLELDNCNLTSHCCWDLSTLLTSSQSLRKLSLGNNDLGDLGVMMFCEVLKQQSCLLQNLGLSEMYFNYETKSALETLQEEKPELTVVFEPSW

This experiment addresses T1, NLRP3 inflammasome (Homo sapiens, UniProt Q96P20).
T1 construct: host or cells: THP-1 human monocytic cells, PMA-differentiated, gramicidin-stimulated
Briefly: ASC-SPECK formation in THP-1 cells after gramicidin stimulation (NLRP3 inflammasome activation). The conditions noted are these: PMA-treated human monocytic THP-1 cells, compound added 1 h before 12.5 ug/ml gramicidin, 3-hour treatment, ASC SPECK imaging; read-out: EC50 (nM), inhibition of NLRP3 inflammasome activation. Format: cell-based. The protocol: The ability of compounds to inhibit NLRP3 inflammasome activation was determined in vitro by monitoring formation of the ASC-SPECK in human monocytic THP-1 cells after stimulation. THP-1 cells (ATCC catalog #TIB-202) were maintained in complete growth media containing Roswell Park Memorial Institute RPMI (ATCC catalog #30-2001), 10% heat inactivated fetal bovine serum, 1× penicillin/streptomycin and 0.05 mM 2-mercaptoethanol. At the start of the assay, undifferentiated THP-1 cells were plated at a density of 20,000 cells per well in a 384-well plate (Poly-D-lysine coated Cell Carrier Ultra microplate, Perkin Elmer catalog #6057500) in complete growth media supplemented with 10 ng/ml phorbol 12-myristate 13-acetate (PMA; Sigma catalog #P8139), and then incubated overnight. The next day, media was replaced with assay media [RPMI (Gibco catalog #11875-093), 0.01% bovine serum albumin (BSA)]. Compounds were serially diluted in DMSO and then added to wells one hour prior to the addition of 12.5 ug/ml Gramicidin (Enzo Lifescience, catalog #ALX-350-233-M005). All incubations were carried out at 37° C. (5% C02/95% air). Following a 3-hour treatment with gramicidin, cells are fixed with 4% paraformaldehyde and stored at 4° C. until immunofluorescence staining.
Immunofluorescence staining: Anti-ASC antibody (MBL catalog #D086-3) was desalted and labeled with Alexa 488 antibody labeling kit (Thermo catalog #A20181) prior to use as described below. After fixation, the following steps were carried out at room temperature. Cells were first permeabilized with 0.3% Triton X-100 in phosphate-buffered saline (PBS) for 15 minutes and then incubated in blocking buffer containing 5% goat serum, 0.3% tween-20 and 0.03% sodium azide in PBS for 1 hour. Cells were stained with a mixture of ASC-Alexa 488 antibody (diluted 1:200 in blocking buffer) and nuclear stain DRAQ5 (1:5000 in blocking buffer, Thermo catalog #62251) in blocking buffer for 1 hour. Following a wash with 0.3% Tween-20 in PBS, plates were imaged with an Opera Phenix High Content Screening System. The number of DRAQ5 positive cells containing ASC SPECKS were quantified in each well.
Data analysis: EC50 values were calculated by standard curve-fitting analysis using an internally developed program in TIBCO Spotfire software.
Regarding `Cc1cc(C(F)(F)F)cc(O)c1-c1cc2c(nn1)N(C1CC(C)(C)C1O)CCC2` (single isomer, unassigned) [Example 5, 2-(8-((1S,2R or 1R,2S)-2-hydroxy-3,3-dimethylcyclobutyl)-5,6,7,8-tetrahydropyrido[2,3-c]pyridazin-3-yl)-3-methyl-5-(trifluoromethyl)phenol], the EC50 turned out to be 1430 nM.
In the case of `Cc1cc(C(F)(F)F)cc(O)c1-c1cc2c(nn1)N(C1CC(C)(C)C1O)CCC2` (single isomer, unassigned) [Example 6, 2-(8-((1R,2S or 1S,2R)-2-hydroxy-3,3-dimethylcyclobutyl)-5,6,7,8-tetrahydropyrido[2,3-c]pyridazin-3-yl)-3-methyl-5-(trifluoromethyl)phenol], the EC50 came out at 118 nM.
On to `Cc1cc(C(F)(F)F)cc(O)c1-c1cc2c(nn1)N([C@H]1C[C@@](C)(O)C1)CCC2` [Example 1, 2-(8-((1s,3s)-3-hydroxy-3-methylcyclobutyl)-5,6,7,8-tetrahydropyrido[2,3-c]pyridazin-3-yl)-3-methyl-5-(trifluoromethyl)phenol], for which the 50% effective concentration (EC50) is 42 nM.
As for `CCN1CCC[C@@H](N2CCCc3cc(-c4c(C)cc(C(F)(F)F)cc4O)nnc32)C1` [Example 2, (R)-2-(8-(1-ethylpiperidin-3-yl)-5,6,7,8-tetrahydropyrido[2,3-c]pyridazin-3-yl)-3-methyl-5-(trifluoromethyl)phenol], the EC50 was determined as 5 nM.
As for `Cc1cc(C(F)(F)F)cc(O)c1-c1cc2c(nn1)N(C13CCCC(O)(C1)C3)CCC2` [Example 3, 5-(3-(2-hydroxy-6-methyl-4-(trifluoromethyl)phenyl)-6,7-dihydropyrido[2,3-c]pyridazin-8(5H)-yl)bicyclo[3.1.1]heptan-1-ol], the EC50 was 125 nM.
With `Cc1cc(C(F)(F)F)cc(O)c1-c1cc2c(nn1)N([C@@H]1CCCC[C@H]1O)CCC2` [Example 4, 2-(8-((1R,2R)-2-hydroxycyclohexyl)-5,6,7,8-tetrahydropyrido[2,3-c]pyridazin-3-yl)-3-methyl-5-(trifluoromethyl)phenol] the figure was 157 nM.
In the case of `Cc1cc(C(F)(F)F)cc(O)c1-c1cc2c(nn1)N(C[C@@H]1C[C@H](F)CN1)CCC2` [Example 7, 2-(8-(((2S,4S)-4-fluoropyrrolidin-2-yl)methyl)-5,6,7,8-tetrahydropyrido[2,3-c]pyridazin-3-yl)-3-methyl-5-(trifluoromethyl)phenol], the EC50 is 240 nM.
Consider `Cc1cc(C(F)(F)F)cc(O)c1-c1cc2c(nn1)N([C@H]1C[C@@](C)(O)C1)C[C@H](N)C2` [Example 8, 2-((R)-6-amino-8-((1s,3S)-3-hydroxy-3-methylcyclobutyl)-5,6,7,8-tetrahydropyrido[2,3-c]pyridazin-3-yl)-3-methyl-5-(trifluoromethyl)phenol], for which the concentration for a half-maximal effect (EC50) stood at 285 nM.
In the case of `CCN1CCC[C@@H](N2CCCc3c2nnc(-c2ccc(C(F)(F)F)cc2O)c3C)C1` [Example 9, (R)-2-(8-(1-ethylpiperidin-3-yl)-4-methyl-5,6,7,8-tetrahydropyrido[2,3-c]pyridazin-3-yl)-5-(trifluoromethyl)phenol], the concentration for a half-maximal effect (EC50) is 48 nM.
Consider `CCN1CCC[C@@H](N2CCCc3c2nnc(-c2ccc(C(F)(F)F)cc2OC(F)F)c3C)C1` [Example 10, (R)-3-(2-(difluoromethoxy)-4-(trifluoromethyl)phenyl)-8-(1-ethylpiperidin-3-yl)-4-methyl-5,6,7,8-tetrahydropyrido[2,3-c]pyridazine], for which the EC50 came to 380 nM.
With `CCN1CCC[C@@H](N2CCCc3c2nnc(-c2ccc(C(F)(F)F)nc2OC(F)F)c3C)C1` [Example 11, (R)-3-(2-(difluoromethoxy)-6-(trifluoromethyl)pyridin-3-yl)-8-(1-ethylpiperidin-3-yl)-4-methyl-5,6,7,8-tetrahydropyrido[2,3-c]pyridazine] the figure was 1070 nM; with `CCN1CCC[C@@H](N2CCCc3c2nnc(-c2ccc4occc4c2)c3C)C1` [Example 12, (R)-3-(benzofuran-5-yl)-8-(1-ethylpiperidin-3-yl)-4-methyl-5,6,7,8-tetrahydropyrido[2,3-c]pyridazine], 253 nM; with `Cc1cc(C(F)(F)F)cc(O)c1-c1cc2c(nn1)N(C[C@@H]1C[C@H](F)CN1C)CCC2` [Example 13, 2-(8-(((2S,4S)-4-fluoro-1-methylpyrrolidin-2-yl)methyl)-5,6,7,8-tetrahydropyrido[2,3-c]pyridazin-3-yl)-3-methyl-5-(trifluoromethyl)phenol], 629 nM.
In the case of `Cc1cc(C(F)(F)F)cc(O)c1-c1cc2c(nn1)N([C@H]1CN(C)CC[C@H]1O)CCC2` [Example 14, (3S,4R)-3-(3-(2-hydroxy-6-methyl-4-(trifluoromethyl)phenyl)-6,7-dihydropyrido[2,3-c]pyridazin-8(5H)-yl)-1-methylpiperidin-4-ol], the EC50 was determined as 27 nM.
In the case of `CCN1C[C@@H](F)C[C@H]1CN1CCCc2cc(-c3c(C)cc(C(F)(F)F)cc3O)nnc21` [Example 15, 2-(8-(((2S,4S)-1-ethyl-4-fluoropyrrolidin-2-yl)methyl)-5,6,7,8-tetrahydropyrido[2,3-c]pyridazin-3-yl)-3-methyl-5-(trifluoromethyl)phenol], the concentration giving a half-maximal response (EC50) amounted to 692 nM.
On to `CC(=O)N1C[C@H](F)C[C@H]1CN1CCCc2cc(-c3c(C)cc(C(F)(F)F)cc3O)nnc21` [Example 16, 1-((2S,4R)-4-fluoro-2-((3-(2-hydroxy-6-methyl-4-(trifluoromethyl)phenyl)-6,7-dihydropyrido[2,3-c]pyridazin-8(5H)-yl)methyl)pyrrolidin-1-yl)ethan-1-one], for which the EC50 is 317 nM.
The value for `CC(=O)N1C[C@@H](F)C[C@H]1CN1CCCc2cc(-c3c(C)cc(C(F)(F)F)cc3O)nnc21` [Example 17, 1-((2S,4S)-4-fluoro-2-((3-(2-hydroxy-6-methyl-4-(trifluoromethyl)phenyl)-6,7-dihydropyrido[2,3-c]pyridazin-8(5H)-yl)methyl)pyrrolidin-1-yl)ethan-1-one] was 597 nM.
For `CCC(=O)N1C[C@H](F)C[C@H]1CN1CCCc2cc(-c3c(C)cc(C(F)(F)F)cc3O)nnc21` [Example 18, 1-((2S,4R)-4-fluoro-2-((3-(2-hydroxy-6-methyl-4-(trifluoromethyl)phenyl)-6,7-dihydropyrido[2,3-c]pyridazin-8(5H)-yl)methyl)pyrrolidin-1-yl)propan-1-one], the EC50 came out at 204 nM.
As to `Cc1cc(C(F)(F)F)cc(O)c1-c1cc2c(nn1)N(C[C@@H]1C[C@@H](F)CN1C(=O)C1CC1)CCC2` [Example 19, cyclopropyl((2S,4R)-4-fluoro-2-((3-(2-hydroxy-6-methyl-4-(trifluoromethyl)phenyl)-6,7-dihydropyrido[2,3-c]pyridazin-8(5H)-yl)methyl)pyrrolidin-1-yl)methanone], the EC50 was 431 nM.
As for `Cc1cc(C(F)(F)F)cc(O)c1-c1cc2c(nn1)N(C[C@@H]1C[C@@H](F)CN1C(=O)C1CCC1)CCC2` [Example 20, cyclobutyl((2S,4R)-4-fluoro-2-((3-(2-hydroxy-6-methyl-4-(trifluoromethyl)phenyl)-6,7-dihydropyrido[2,3-c]pyridazin-8(5H)-yl)methyl)pyrrolidin-1-yl)methanone], the EC50 amounted to 874 nM.
With `Cc1cc(C(F)(F)F)cc(O)c1-c1cc2c(nn1)N(C[C@@H]1C[C@@H](F)CN1S(C)(=O)=O)CCC2` [Example 21, 2-(8-(((2S,4R)-4-fluoro-1-(methylsulfonyl)pyrrolidin-2-yl)methyl)-5,6,7,8-tetrahydropyrido[2,3-c]pyridazin-3-yl)-3-methyl-5-(trifluoromethyl)phenol] the figure was 351 nM.
For the molecule `Cc1cc(C(F)(F)F)cc(O)c1-c1cc2c(nn1)N(C[C@@H]1C[C@H](F)CN1S(C)(=O)=O)CCC2` [Example 22, 2-(8-(((2S,4S)-4-fluoro-1-(methylsulfonyl)pyrrolidin-2-yl)methyl)-5,6,7,8-tetrahydropyrido[2,3-c]pyridazin-3-yl)-3-methyl-5-(trifluoromethyl)phenol], the EC50 turned out to be 784 nM.
